Patent publication US20100099770A1, “METHOD FOR TREATING DIABETIC PERIPHERAL NEUROPATHIC PAIN” (SCHWARZ PHARMA AG, priority 2001, published 2010)
Entries after “also recorded” stand apart in the source; their conditions may differ. Marks after values point to notes of the source that are not given here.

Legend:
[1] = test system: formalin-induced nociception (paw licking); test: Subchronic inflammatory nociception in mice (formalin test); format: in vivo; conditions: for nociceptive threshold, early phase: 0-5 min after formalin (acute pain); for nociceptive threshold, late phase: 20-30 min after formalin (subchronic inflammatory pain); for effect on formalin-induced nociceptive response (in words): 10, 20, 40 mg/kg i.p.
Description: Subchronic inflammatory nocicpetion in mice was induced by the subplantar injection of formalin (0.02 ml of a 5% solution). Nociceptive behaviour (paw licking) was measured and quantified between 0 and 5 min (acute pain) and between 20 and 30 min (subchronic inflammatory pain) after formalin.
Drugs and experimental design: SPM 927 and GBP were suspended in 1% methylcellulose and administered i.p. at doses of 10 mg/kg, 20 mg/kg and 40 mg/kg. Pre-treatment time was 30 min before pain measurement. One group of animals served as controls and consequently received an injection of solvent (10 ml/kg) and another group of animals received a reference compound (Carrageenan test: 10 mg/kg indomethacin; Formalin test: 10 mg/kg morphine). Each compound was tested in a separate experiment and each experiment included a control and a reference group. 10 rats per group were used in the Carrageenan test and 6 mice per group in the formalin test.

[2] = test system: spontaneous pain induced by unilateral chronic constriction injury; test: Chronic constriction injury (CCI, Bennett model): spontaneous pain; format: in vivo, rat; conditions: for Spontaneous nociception, weighted pain score, Post-op + Drug: ligated paw, score 0-5, ±SEM
Description: The effectiveness of harkoseride in reducing spontaneous chronic pain, mechanical allodynia, and thermal hyperalgesia was tested using the chronic constriction injury (CCI) model of peripheral neuropathy, one of the best characterised in vivo animal models used to study chronic pain due to peripheral nerve injury. In this model, loose ligatures are placed around the sciatic nerve, which produces axonal swelling and a partial deafferentation manifested as a significant but incomplete loss of axons in the distal portion of the peripheral nerve. One of the prominent behaviours seen following sciatic nerve ligation is the appearance of hind paw guarding, thought to be an indication of an ongoing spontaneous chronic pain. Support for this idea is derived from reports of increased spinal cord neural activity, and increased spontaneous neuronal discharge in spinothalamic tract neurons and in the ventrobasal thalamus in the absence of overt peripheral stimulation. In addition to the appearance of spontaneous pain behaviours, several abnormalities in stimulus evoked pain occur as a result of CCI, including thermal hyperalgesia and mechanical allodynia. The development of these abnormal stimulus-evoked pains has also been reported as occurring in areas outside the territory of the damaged nerve, areas innervated by uninjured nerves.
Behavioural tests for spontaneous pain, thermal hyperalgesia, and mechanical allodynia were conducted to evaluate different components of neuropathic pain. Baseline data for each test was collected prior to any experimental procedure; in addition, all animals were tested for the development of chronic pain behaviours 13-25 days after CCI surgery 1 day prior to the day of vehicle (0.04 ml sterile water/10 g body weight) or drug administration and after vehicle/drug administration. The sequence of the tests was (1) spontaneous pain-related behaviour (2) mechanical allodynia, (3) thermal hyperalgesia in order to minimise the influence of one test on the result of the next. The testing procedures and results are presented separately for each aspect of chronic pain. Either 0 (vehicle, 0.04 ml/10 g body weight), 5, 10, 20 or 40 mg/kg of SPM 927 (n=7-23/group) was administered i.p. 15 minutes before the first behavioural test.
Spontaneous pain (ongoing pain without an apparent external stimulus) of the ligated paw was assessed for 5 min following a 10 min acclimation period by use of a rating score (weighted behaviour score scaled 0-5).

[3] = test system: neuropathic pain (CHUNG), thermal stimulation; test: Neuropathic pain (CHUNG) test, thermal stimulation on lesioned paw; format: in vivo, rat; conditions: for PAW-WITHDRAWAL LATENCY, % change: compared with lesioned control; for PAW-WITHDRAWAL LATENCY, mean ± s.e.m.: lesioned paw
Source text: The following Tables 8 and 9 show the effects of harkoseride (hereinafter referred tows SPM 927), carbamazepine, levetiracetam, gabapentin and morphine in the neuropathic pain (CHUNG) test in the rat. Eight (8) rats per group were used.

[4] = test system: formalin-induced tonic inflammatory nociceptive behaviour; test: Formalin test, rat (weighted behavioural scoring); format: in vivo; conditions: for Weighted pain score: score 0-3, ±SEM; for effect on formalin-induced nociceptive behaviour (in words): i.p. just prior to formalin, 5-40 mg/kg, late phase
Description: The formalin test is a chemically-induced tonic pain model in which biphasic changes of nociceptive behaviour are assessed and spinal/supraspinal plasticity of nociception is considered as a molecular basis for neuropathic pain particularly during the second (=late) phase of the test, during which most clinically used drugs against neuropathic pain are active.
The compound was tested for anti-nociceptive properties by use of the weighted behavioural scoring method: Freely moving animals underwent observational assessment of the position of the left hind paw according to a rating score scaled 0-3 before and 10, 20, 30 and 40 min after injection of 0.05 ml of sterile 2.5% formalin under the skin on the dorsal surface of the paw.

[5] = test system: acute spinal thermal nociception; test: Tail flick test, rat; format: in vivo; conditions: for Anti-nociceptive effect: ±SEM
Source text: Harkoseride was additionally tested for potential activity in acute spinal thermal nociception using the tail flick test. In this model of acute thermal spinal/reflex hyperalgesia radiant heat is applied to the animal's tail approximately 2 cm from the tip and time latency for withdrawal reaction is automatically assessed by an algometer, a defined maximal stimulus time prevents tissue damage. This test is widely used as an assay for the anti-nociceptive efficacy of pharmacological agents and is highly predictive of acute analgesic efficacy in humans.
Results for 20 and 40 mg/kg harkoseride i.p are shown in table 5 [percent anti-nociception, calculated as [{(post-drug latency)−(pre-drug-latency)}/{(max. latency)−(pre-drug latency)}×100]±SEM, n=12/group]. A baseline or pre-drug tail-flick latency was determined by averaging 5 consecutive measurements taken 2 minutes apart. Vehicle (sterile water 0.04 ml/10 g body weight) or harkoseride were then administered and tail flick latencies recorded at 10-minute intervals for the next 60 minutes.

Structure (SMILES): COC[C@@H](NC(C)=O)C(=O)NCc1ccccc1 [SPM 927, (R)-2-Acetamido-N-benzyl-3-methoxypropionamide]
- nociceptive threshold, early phase ([1]; 10 mg/kg i.p.): 67 ± 15 s
- nociceptive threshold, late phase ([1]; 10 mg/kg i.p.): 58 ± 16^a s
- nociceptive threshold, early phase ([1]; 20 mg/kg i.p.): 69 ± 8 s
- nociceptive threshold, late phase ([1]; 20 mg/kg i.p.): 128 ± 16 s
- nociceptive threshold, early phase ([1]; 40 mg/kg i.p.): 8 ± 8^a s
- nociceptive threshold, late phase ([1]; 40 mg/kg i.p.): 17 ± 17^a s
- effect on formalin-induced nociceptive response (in words) [1]: near complete reversal
- effect on formalin-induced nociceptive response (in words) ([1]; listed as SPM-927): dose dependently suppressed
- Spontaneous nociception, weighted pain score, Post-op + Drug ([2]; 5 mg/kg i.p.): 1.8 ± 0.18
- Spontaneous nociception, weighted pain score, Post-op + Drug ([2]; 10 mg/kg i.p.): 1.5 ± 0.11
- Spontaneous nociception, weighted pain score, Post-op + Drug ([2]; 20 mg/kg i.p.): 0.9 ± 0.14
- Spontaneous nociception, weighted pain score, Post-op + Drug ([2]; 40 mg/kg i.p.): 0.8 ± 0.28
- effect on level of spontaneous pain (in words) ([2]; 5-40 mg/kg i.p.): did not change
- PAW-WITHDRAWAL LATENCY, % change ([3]; 8 mg/kg i.p. -30 min): +60% (b)
- PAW-WITHDRAWAL LATENCY, mean ± s.e.m. ([3]; 8 mg/kg i.p. -30 min): 26.1 ± 5.4 NS (b) sec
- PAW-WITHDRAWAL LATENCY, % change ([3]; 16 mg/kg i.p. -30 min): +3% b)
- PAW-WITHDRAWAL LATENCY, mean ± s.e.m. ([3]; 16 mg/kg i.p. -30 min): 16.8 ± 4.5 NS (b) sec
- PAW-WITHDRAWAL LATENCY, % change ([3]; 32 mg/kg i.p. -30 min): +29% (b)
- PAW-WITHDRAWAL LATENCY, mean ± s.e.m. ([3]; 32 mg/kg i.p. -30 min): 21.1 ± 5.6 NS (b) sec
- Weighted pain score ([4]; 5 mg/kg i.p., 10 min after formalin): 0.31 ± 0.11
- Weighted pain score ([4]; 5 mg/kg i.p., 20 min after formalin): 0.78 ± 0.23
- Weighted pain score ([4]; 5 mg/kg i.p., 30 min after formalin): 1.47 ± 0.20
- Weighted pain score ([4]; 5 mg/kg i.p., 40 min after formalin): 1.46 ± 0.19
- Weighted pain score ([4]; 10 mg/kg i.p., 10 min after formalin): 0.42 ± 0.17
- Weighted pain score ([4]; 10 mg/kg i.p., 20 min after formalin): 0.33 ± 0.16
- Weighted pain score ([4]; 10 mg/kg i.p., 30 min after formalin): 1.02 ± 0.27
- Weighted pain score ([4]; 10 mg/kg i.p., 40 min after formalin): 1.05 ± 0.19
- Weighted pain score ([4]; 20 mg/kg i.p., 10 min after formalin): 0.48 ± 0.18
- Weighted pain score ([4]; 20 mg/kg i.p., 20 min after formalin): 0.57 ± 0.14
- Weighted pain score ([4]; 20 mg/kg i.p., 30 min after formalin): 0.78 ± 0.18
- Weighted pain score ([4]; 20 mg/kg i.p., 40 min after formalin): 1.02 ± 0.24
- Weighted pain score ([4]; 40 mg/kg i.p., 10 min after formalin): 0.12 ± 0.05
- Weighted pain score ([4]; 40 mg/kg i.p., 20 min after formalin): 0.10 ± 0.04
- Weighted pain score ([4]; 40 mg/kg i.p., 30 min after formalin): 0.09 ± 0.06
- Weighted pain score ([4]; 40 mg/kg i.p., 40 min after formalin): 0.12 ± 0.06
- effect on formalin-induced nociceptive behaviour (in words) ([4]; listed as Harkoseride): dose dependant reduction
- effect on formalin-induced nociceptive behaviour (in words) ([4]; listed as harkoseride): Significant and dose dependent efficacy
- Anti-nociceptive effect ([5]; 20 mg/kg i.p., 10 min after drug): 5.0 ± 3.94%
- Anti-nociceptive effect ([5]; 20 mg/kg i.p., 20 min after drug): 9.7 ± 7.51%
- Anti-nociceptive effect ([5]; 20 mg/kg i.p., 30 min after drug): 9.7 ± 2.37%
- Anti-nociceptive effect ([5]; 20 mg/kg i.p., 40 min after drug): 1.7 ± 7.42%
- Anti-nociceptive effect ([5]; 20 mg/kg i.p., 50 min after drug): 5.4 ± 4.12%
- Anti-nociceptive effect ([5]; 20 mg/kg i.p., 60 min after drug): 8.1 ± 5.20%
- Anti-nociceptive effect ([5]; 40 mg/kg i.p., 10 min after drug): −1.6 ± 12.82%
- Anti-nociceptive effect ([5]; 40 mg/kg i.p., 20 min after drug): −4.3 ± 14.04%
- Anti-nociceptive effect ([5]; 40 mg/kg i.p., 30 min after drug): −2.3 ± 9.14%
- Anti-nociceptive effect ([5]; 40 mg/kg i.p., 40 min after drug): −4.4 ± 11.44%
- Anti-nociceptive effect ([5]; 40 mg/kg i.p., 50 min after drug): 0.3 ± 15.50%
- Anti-nociceptive effect ([5]; 40 mg/kg i.p., 60 min after drug): −5.5 ± 14.11%
- effect in the tail flick test (in words) ([5]; 20 and 40 mg/kg i.p., listed as harkoseride): negative results; also recorded: little or no effect; also recorded: no anti-nociceptive effect
